# Like-named read-outs stand apart in the source and are kept apart here.
# Experiments:
# Streptococcus Pneumonia = details: Streptococcus pneumoniae, 7 h
# [1] = test system: Streptococcus Pyogenes (Lancefield group A); details: 18 h
smiles,measurement,setting,value
"C[S+](C)[O-] [DMSO, Dimethyl sulfoxide]",Viability of S. pneumonia,Streptococcus Pneumonia; 5 %,75.45%
same,Viability of S. pneumonia,Streptococcus Pneumonia; 10 %,40.18%
same,S. pyogenes viability (%),[1]; 5 %,96.66%
same,Viability of S. pyogenes (%),[1]; 5 %,96.66%
same,S. pyogenes viability (%),[1]; 8 %,9.96%
same,Viability of S. pyogenes (%),[1]; 10 %,14.50%
same,Viability of S. pyogenes (%),[1]; 20 %,5.14%
